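Growth conditions: 96-well plates. Treatment: test compound, 48 hours, 5 concentrations. Analysis: linear interpolation between bracketing concentrations; unreached endpoints set to highest concentration. Abbreviation: GI50, concentration required for 50% inhibition of growth. The concentration for full growth arrest is given as TGI.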
Columns and labels:
Assay in all cases: NCI-60 cell line screen, 48 h
[1] = system: M14 melanoma
[2] = system: UACC-257 melanoma
[3] = system: IGROV1 ovarian
[4] = system: U251 CNS
[5] = system: MDA-N
[6] = system: SR leukemia
[7] = system: PC-3 prostate
[8] = system: COLO 205 colon
[9] = system: RPMI-8226 leukemia
[10] = system: SF-268 CNS

O=C1C[C@H](CCC(=O)OCc2ccccc2)NC(=O)C[C@H](CCC(=O)OCc2ccccc2)NC(=O)C[C@H](CCC(=O)OCc2ccccc2)N1
TGI [1]: > 100 µM
TGI [2]: > 100 µM
TGI [3]: > 100 µM
TGI [4]: > 100 µM
TGI [5]: > 100 µM
TGI [6]: > 100 µM
TGI [7]: > 100 µM
TGI [8]: > 100 µM
TGI [9]: > 100 µM

COc1cc2c(cc1OCCCN1CCN(c3ncnc4ccccc34)CC1)N=CC1CCCN1C2=O (stereo not given)
GI50 [1]: 0.0303 µM
TGI [1]: 0.138 µM
GI50 [2]: 0.15 µM
TGI [2]: 0.737 µM
GI50 [3]: 0.0126 µM
TGI [3]: 0.0269 µM
GI50 [10]: 0.0339 µM
TGI [10]: 0.625 µM
GI50 [6]: < 0.0149 µM
TGI [6]: 0.0968 µM
GI50 [7]: 0.0232 µM
TGI [7]: 0.0973 µM
GI50 [8]: 0.0203 µM
TGI [8]: 0.0446 µM
GI50 [9]: < 0.0119 µM
TGI [9]: 0.0353 µM

Fc1c(F)c(C(F)(F)F)c(F)c(F)c1N/N=C/c1cn(Cc2ccccc2)c2ccccc12
TGI [1]: 43 µM
TGI [2]: 54 µM
TGI [3]: > 100 µM
TGI [10]: > 100 µM
TGI [4]: > 100 µM
TGI [6]: 67 µM
TGI [7]: 79.2 µM
TGI [8]: 26.8 µM
TGI [9]: 62.7 µM

COc1ccc(C2C(C=O)C(N3CCN(C)CC3)=Nc3nc4ccccc4n32)cc1 (stereo not given)
TGI [1]: 41.5 µM
TGI [2]: 41 µM
TGI [3]: 31.7 µM
TGI [10]: 51.6 µM
TGI [4]: 39.3 µM
TGI [6]: 2.35 µM
TGI [7]: 36.9 µM
TGI [8]: 36 µM
TGI [9]: 17.3 µM

O=S(O)c1cc(Cl)cc(Cl)c1OCc1ccccc1
TGI [1]: > 100 µM
TGI [2]: > 100 µM
TGI [10]: > 100 µM
TGI [4]: > 100 µM
TGI [6]: > 100 µM

CNC(=O)Nc1ccccc1
TGI [1]: > 100 µM
TGI [2]: > 100 µM
TGI [3]: > 100 µM
TGI [10]: > 100 µM
TGI [4]: > 100 µM
TGI [5]: > 100 µM
TGI [6]: > 100 µM
TGI [7]: > 100 µM
TGI [8]: > 100 µM
TGI [9]: > 100 µM

O=C(COc1ccc(Cl)cc1Cl)N/N=C/C=C/c1ccc([N+](=O)[O-])o1
TGI [1]: > 100 µM
TGI [3]: 6.79 µM
TGI [10]: > 100 µM
TGI [4]: > 100 µM
TGI [5]: > 100 µM
TGI [7]: > 100 µM
TGI [9]: 9.22 µM

C[N+](C)(CCO)CCN1c2ccccc2Sc2ccccc21
TGI [1]: > 10 µM
TGI [3]: > 10 µM
TGI [10]: > 10 µM
TGI [4]: > 10 µM
TGI [5]: > 10 µM
TGI [6]: > 10 µM
TGI [7]: > 10 µM
TGI [8]: > 10 µM
TGI [9]: > 10 µM

COc1ccc2nc3ccccc3c(NCc3ccc(C)cc3)c2c1
GI50 [1]: 1.69 µM
TGI [1]: 3.61 µM
GI50 [2]: 2.12 µM
TGI [2]: 5 µM
GI50 [3]: 2.19 µM
TGI [3]: 6.34 µM
GI50 [10]: 2.27 µM
TGI [10]: 5.44 µM
GI50 [4]: 1.84 µM
TGI [4]: 3.69 µM
GI50 [6]: 1.81 µM
TGI [6]: 6.04 µM
GI50 [7]: 1.64 µM
TGI [7]: 4.49 µM
GI50 [8]: 1.65 µM
TGI [8]: 3.78 µM

Clc1ccc(-c2nnc(-c3c(Cl)c(Cl)c(Cl)c(Cl)c3-c3nc4ccccc4[nH]3)o2)cc1
TGI [1]: > 100 µM
TGI [2]: > 100 µM
TGI [3]: > 100 µM
TGI [10]: > 100 µM
TGI [5]: > 100 µM
TGI [6]: > 100 µM
TGI [7]: > 100 µM
TGI [8]: > 100 µM
TGI [9]: > 100 µM

COc1cc2c(cc1OC)-c1cc3ccc(OC)c(OC)c3c[n+]1CC2
TGI [1]: > 100 µM
TGI [2]: > 100 µM
TGI [3]: > 100 µM
TGI [10]: > 100 µM
TGI [4]: > 100 µM
TGI [5]: > 100 µM
TGI [6]: > 100 µM
TGI [7]: > 100 µM
TGI [8]: > 100 µM
TGI [9]: > 100 µM

COc1ccc2c(c1)CC[C@@H]1[C@@H]2CC[C@]2(C)C(=O)/C(=C/c3ccc(O)c(OC)c3)C[C@@H]12
TGI [1]: > 100 µM
TGI [2]: > 100 µM
TGI [3]: > 100 µM
TGI [4]: > 100 µM
TGI [5]: > 100 µM
TGI [6]: > 100 µM
TGI [7]: > 100 µM
TGI [8]: > 100 µM
TGI [9]: > 100 µM

Cn1c(=O)c2c(nc(NCCNc3nc4c(c(=O)n(C)c(=O)n4C)n3C)n2C)n(C)c1=O
TGI [1]: > 100 µM
TGI [2]: > 100 µM
TGI [3]: > 100 µM
TGI [10]: > 100 µM
TGI [4]: > 100 µM
TGI [5]: > 100 µM
TGI [6]: > 100 µM
TGI [7]: > 100 µM

CCOC(=O)c1c(CN2CCCC2)n(-c2ccccc2)c2cc(Br)c(OC)cc12
TGI [1]: 36.6 µM
TGI [2]: 28.6 µM
TGI [3]: 45.6 µM
TGI [10]: > 100 µM
TGI [4]: 39.1 µM
TGI [5]: > 100 µM
TGI [6]: 25 µM
TGI [7]: 77.2 µM
TGI [8]: 25.3 µM
TGI [9]: 34 µM

N#C[S-].[Ce+3].c1cnc2c(c1)ccc1cccnc12.c1cnc2c(c1)ccc1cccnc12.c1cnc2c(c1)ccc1cccnc12
TGI [1]: 3.42 µM
TGI [2]: 18.9 µM
TGI [3]: > 100 µM
TGI [4]: 12.6 µM
TGI [6]: > 100 µM
TGI [8]: 13.4 µM
TGI [9]: > 100 µM

NC(CC(=O)O)(Cc1ccccc1)C(=O)O (stereo not given)
TGI [1]: > 100 µM
TGI [2]: > 100 µM
TGI [3]: > 100 µM
TGI [4]: > 100 µM
TGI [5]: > 100 µM
TGI [6]: > 100 µM
TGI [7]: > 100 µM
TGI [8]: > 100 µM
TGI [9]: > 100 µM

CC(=O)C1=C(O)CCC1=O
TGI [1]: > 100 µM
TGI [2]: > 100 µM
TGI [3]: > 100 µM
TGI [10]: > 100 µM
TGI [4]: > 100 µM
TGI [6]: > 100 µM
TGI [7]: > 100 µM
TGI [8]: > 100 µM
TGI [9]: > 100 µM

C[C@]12CCC(=O)C=C1CC[C@@H]1[C@@H]2[C@@H](O)C[C@@]2(C)[C@H]1CC[C@]2(O)C(=O)COC(=O)C1CCCC1
TGI [1]: > 100 µM
TGI [2]: > 100 µM
TGI [3]: > 100 µM
TGI [10]: > 100 µM
TGI [4]: > 100 µM
TGI [5]: > 100 µM
TGI [6]: > 100 µM
TGI [7]: > 100 µM
TGI [8]: > 100 µM
TGI [9]: > 100 µM

Cc1ccc(SSCCCCCS(=O)O)cc1
TGI [1]: > 100 µM
TGI [2]: > 100 µM
TGI [10]: 36.1 µM
TGI [4]: 25.7 µM
TGI [6]: 28.9 µM
TGI [9]: 71.4 µM

O=c1/c(=C/c2ccc([N+](=O)[O-])o2)sc2n1[C@@H](c1ccc3c(c1)OCO3)C=C(c1cc(F)c(Cl)cc1Cl)N=2
TGI [1]: 31.8 µM
TGI [2]: 34.8 µM
TGI [3]: 33.4 µM
TGI [10]: > 100 µM
TGI [4]: 46.5 µM
TGI [5]: 43.3 µM
TGI [6]: > 100 µM
TGI [7]: > 100 µM
TGI [8]: 71.4 µM
TGI [9]: > 100 µM

O=C(NNC(=O)c1nsc2ccccc12)c1ccc(Cl)cc1
TGI [1]: 36.9 µM
TGI [2]: 48.2 µM
TGI [3]: > 100 µM
TGI [10]: 41.3 µM
TGI [4]: 33.7 µM
TGI [6]: 75.5 µM
TGI [8]: 66 µM
TGI [9]: 50.2 µM

Source: PubChem BioAssay (NCI)
